The compounds below were run against T1, c-MET (Homo sapiens, UniProt P08581) (assay: Met Transphosphorylation Assay (ELISA, poly(Glu,Tyr) 4:1 substrate)). Conditions: purified GST fusion protein containing the Met kinase domain.
T1 construct: Purified GST fusion protein containing the Met kinase domain, Sugen, Inc
Type: biochemical
Description: Met Transphosphorylation Assay
This assay is used to measure phosphotyrosine levels on a poly(glutamic acid:tyrosine (4:1)) substrate as a means for identifying agonists/antagonists of met transphosphorylation of the substrate.
6. Purified GST fusion protein containing the Met kinase domain, Sugen, Inc.
8. 10% aqueous (MilliQue H2O) DMSO.
10. 2× Kinase Dilution Buffer: for 100 ml, mix 10 mL 1M HEPES at pH 7.5 with 0.4 mL 5% BSA/PBS, 0.2 mL 0.1 M sodium orthovanadate and 1 mL 5M sodium chloride in 88.4 mL dH2O.
11. 4× ATP Reaction Mixture: for 10 mL, mix 0.4 mL 1 M manganese chloride and 0.02 mL 0.1 M ATP in 9.56 mL dH2O.
12. 4× Negative Controls Mixture: for 10 mL, mix 0.4 mL 1 M manganese chloride in 9.6 mL dH2O.
15. Antibody Dilution Buffer: for 100 mL, mix 10 mL 5% BSA/PBS, 0.5 mL 5% Carnation Instant Milk® in PBS and 0.1 mL 0.1 M sodium orthovanadate in 88.4 mL TBST.
16. Rabbit polyclonal antophosphotyrosine antibody, Sugen, Inc.
17. Goat anti-rabbit horseradish peroxidase conjugated antibody, Biosource, Inc.
18. ABTS Solution: for 1 L, mix 19.21 g citric acid, 35.49 g Na2HPO4 and 500 mg ABTS with sufficient dH2O to make 1 L.
19. ABTS/H2O2: mix 15 mL ABST solution with 2pL H2O2 five minutes before use.
1. Coat ELISA plates with 2 μg Poly(Glu—Tyr) in 100 μL PBS, store overnight at 4° C.
2. Block plate with 150 μL of 5% BSA/PBS for 60 min.
3. Wash plate twice with PBS, once with 50 mM Hepes buffer pH 7.4.
4. Add 50 μl of the diluted kinase to all wells. (Purified kinase is diluted with Kinase Dilution Buffer. Final concentration should be 10 ng/well.)
5. Add 25 μL of the test compound (in 4% DMSO) or DMSO alone (4% in dH2O) for controls to plate.
6. Incubate the kinase/compound mixture for 15 minutes.
7. Add 25 μL of 40 mM MnCl2 to the negative control wells.
8. Add 25 μL ATP/MnCl2 mixture to the all other wells (except the negative controls). Incubate for 5 min.
9. Add 25 μL 500 mM EDTA to stop reaction.
10. Wash plate 3× with TBST.
11. Add 100 μL rabbit polyclonal anti-Ptyr diluted 1:10,000 in Antibody Dilution Buffer to each well. Incubate, with shaking, at room temperature for one hour.
12. Wash plate 3× with TBST.
13. […] Add 100 μL per well and incubate at room temperature, with shaking, for one hour.
14. Wash plate 1× with PBS.
15. Add 100 μl of ABTS/H2O2 solution to each well.
16. If necessary, stop the development reaction with the addition of 100 μl of 0.2M HCl per well.
Met Transphosphorylation Assay Results

T1 sequence (P08581 1078-1345 limits assumed): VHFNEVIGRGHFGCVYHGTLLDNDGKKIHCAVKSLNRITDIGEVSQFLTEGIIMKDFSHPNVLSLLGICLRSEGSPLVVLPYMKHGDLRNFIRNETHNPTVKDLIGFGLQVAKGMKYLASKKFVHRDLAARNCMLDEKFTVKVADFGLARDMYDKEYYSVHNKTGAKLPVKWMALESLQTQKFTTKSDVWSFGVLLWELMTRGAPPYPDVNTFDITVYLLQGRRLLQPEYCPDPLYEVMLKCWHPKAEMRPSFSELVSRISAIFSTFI

Row | IC50 [nM] | Structure (SMILES)
1 | 4 | Oc1ccc(Cc2nnc3ncc(-c4cccs4)nn23)cc1 [Example 2, 4-(6-Thiophen-2-yl-[1,2,4]triazolo[4,3-b][1,2,4]triazin-3-ylmethyl)-phenol]
2 | 50 | Fc1ccc(Cc2nnc3ncc(-c4ccccc4)nn23)cc1 [Example 4, 3-(4-Fluoro-benzyl)-6-phenyl-[1,2,4]triazolo[4,3-b][1,2,4]triazine]
3 | 13 | Fc1ccc(Cc2nnc3ncc(-c4cccs4)nn23)cc1 [Example 5, 3-(4-Fluoro-benzyl)-6-thiophen-2-yl-[1,2,4]triazolo[4,3-b][1,2,4]triazine]
4 | 45 | Fc1ccc(Cc2nnc3ncc(-c4ccc(Br)cc4)nn23)cc1 [Example 6, 6-(4-Bromo-phenyl)-3-(4-fluoro-benzyl)-[1,2,4]triazolo[4,3-b][1,2,4]triazine]
5 | 56 | Oc1ccc(Cc2nnc3nccnn23)cc1 [Example 7, 4-[1,2,4]Triazolo[4,3-b][1,2,4]triazin-3-ylmethyl-phenol]
6 | > 20000 | Cc1nc2nnc(Cc3ccc(O)cc3)n2nc1C [Example 8, 4-(6,7-Dimethyl-[1,2,4]triazolo[4,3-b][1,2,4]triazin-3-ylmethyl)-phenol]
7 | 830 | Cc1nn2c(Cc3ccc(O)cc3)nnc2nc1N [Example 9, 4-(7-Amino-6-methyl-[1,2,4]triazolo[4,3-b][1,2,4]triazin-3-ylmethyl)-phenol]
